Laboratory results reported in patent US20230093099A1, “COMPOUNDS AND METHODS OF TREATING CANCERS” (CULLGEN (SHANGHAI), INC., priority 2019, published 2023).

tested on: RS4;11 cells; experiment: Cell viability assay (CellTiter-Glo) in RS4;11 cells; assay type: cell-based; conditions: Homo sapiens, 72 h; RS4;11 cells; cell viability, 3 days, CellTiter-Glo; read-out: IC50
Summary of the method: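 Three-day compound treatment of RS4;11 ALL cells (5000/well, 3-fold dilution series of 8 or 12 points), with IC50 from a nonlinear least-squares fit to CellTiter-Glo viability data.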

| SMILES | IC50 [nM] |
| --- | --- |
| O=C1CCC(N2C(=O)c3cccc(NCCOCCOCCC(=O)N4CCC(n5cc(-c6cnc7cccc(-c8cc(F)c(CN9CCOCC9)c(F)c8)c7n6)cn5)CC4)c3C2=O)C(=O)N1 (stereo not shown) [JA-039, 4-[2-[2-[3-[4-[4-[8-[3,5-Difluoro-4-(morpholinomethyl)phenyl]quinoxalin-2-yl]pyrazol-1-yl]-1-piperidyl]-3-oxo-propoxy]ethoxy]ethylamino]-2-(2,6-dioxo-3-piperidyl)isoindoline-1,3-dione] | > 10000 |
| O=C1CCC(N2Cc3cc(NCCCCCC(=O)N4CCC(n5cc(-c6cnc7cccc(-c8cc(F)c(CN9CCOCC9)c(F)c8)c7n6)cn5)CC4)ccc3C2=O)C(=O)N1 (stereo not shown) [JA-273, 3-(5-((6-(4-(4-(8-(3,5-difluoro-4-(morpholinomethyl)phenyl)quinoxalin-2-yl)-1H-pyrazol-1-yl)piperidin-1-yl)-6-oxohexyl)amino)-1-oxoisoindolin-2-yl)piperidine-2,6-dione] | 66 |
| Cc1cnc(Nc2ccc(N3CCN(CC(=O)NCCCCNc4ccc5c(c4)C(=O)N(C4CCC(=O)NC4=O)C5=O)CC3)cc2)nc1Nc1cccc(S(=O)(=O)NC(C)(C)C)c1 (stereo not shown) [JA-243, 2-(4-(4-((4-((3-(N-(tert-butyl)sulfamoyl)phenyl)amino)-5-methylpyrimidin-2-yl)amino)phenyl)piperazin-1-yl)-N-(4-((2-(2,6-dioxopiperidin-3-yl)-1,3-dioxoisoindolin-5-yl)amino)butyl)acetamide] | 1980 |
| Cc1ncsc1-c1ccc(CNC(=O)[C@@H]2C[C@@H](O)CN2C(=O)[C@@H](NC(=O)CCCCCCCCNC(=O)CN2CCC(n3cc(-c4cnc5cccc(-c6cc(F)c(CN7CCOCC7)c(F)c6)c5n4)cn3)CC2)C(C)(C)C)cc1 [JA-161, (2S,4R)-1-((S)-2-(9-(2-(4-(4-(8-(3,5-Difluoro-4-(morpholinomethyl)phenyl)quinoxalin-2-yl)-1H-pyrazol-1-yl)piperidin-1-yl)acetamido)nonanamido)-3,3-dimethylbutanoyl)-4-hydroxy-N-(4-(4-methylthiazol-5-yl)benzyl)pyrrolidine-2-carboxamide] | 2370 |
| O=C1CCC(N2Cc3cc(OCCCCCC(=O)N4CCC(n5cc(-c6cnc7cccc(-c8cc(F)c(CN9CCOCC9)c(F)c8)c7n6)cn5)CC4)ccc3C2=O)C(=O)N1 (stereo not shown) [JA-263, 3-(5-((6-(4-(4-(8-(3,5-difluoro-4-(morpholinomethyl)phenyl)quinoxalin-2-yl)-1H-pyrazol-1-yl)piperidin-1-yl)-6-oxohexyl)oxy)-1-oxoisoindolin-2-yl)piperidine-2,6-dione] | 3.6 |
| CS(=O)(=O)c1ccc(-c2cccc3nc(Nc4ccc(N5CCN(C(=O)CCCCC#Cc6ccc7c(c6)C(=O)N(C6CCC(=O)NC6=O)C7)CC5)cc4)nn23)cc1 (stereo not shown) [JA-262, 3-(6-(7-(4-(4-((5-(4-(Methylsulfonyl)phenyl)-[1,2,4]triazolo[1,5-a]pyridin-2-yl)amino)phenyl)piperazin-1-yl)-7-oxohept-1-yn-1-yl)-1-oxoisoindolin-2-yl)piperidine-2,6-dione] | > 10000 |
| Cc1cnc(Nc2ccc(N3CCN(C(=O)COCCOCCOCCOCCOCC(=O)N[C@H](C(=O)N4C[C@H](O)C[C@H]4C(=O)NCc4ccc(-c5scnc5C)cc4)C(C)(C)C)CC3)cc2)nc1Nc1cccc(S(=O)(=O)NC(C)(C)C)c1 [JA-036, (2S,4R)-1-((S)-2-(tert-Butyl)-20-(4-(4-((4-((3-(N-(tert-butyl)sulfamoyl)phenyl)amino)-5-methylpyrimidin-2-yl)amino)phenyl)piperazin-1-yl)-4,20-dioxo-6,9,12,15,18-pentaoxa-3-azaicosanoyl)-4-hydroxy-N-(4-(4-methylthiazol-5-yl)benzyl)pyrrolidine-2-carboxamide] | > 10000 |
| O=C1CCC(N2C(=O)c3cccc(NCCOCCC(=O)N4CCC(n5cc(-c6cnc7cccc(-c8cc(F)c(CN9CCOCC9)c(F)c8)c7n6)cn5)CC4)c3C2=O)C(=O)N1 (stereo not shown) [JA-045, 4-[2-[3-[4-[4-[8-[3,5-Difluoro-4-(morpholinomethyl)phenyl]quinoxalin-2-yl]pyrazol-1-yl]-1-piperidyl]-3-oxo-propoxy]ethylamino]-2-(2,6-dioxo-3-piperidyl)isoindoline-1,3-dione] | 1260 |
| Cn1c(=O)n(C2CCC(=O)NC2=O)c2ccc(NCCCCCC(=O)N3CCC(n4cc(-c5cnc6cccc(-c7cc(F)c(CN8CCOCC8)c(F)c7)c6n5)cn4)CC3)cc21 (stereo not shown) [JA-288, 3-(5-((6-(4-(4-(8-(3,5-Difluoro-4-(morpholinomethyl)phenyl)quinoxalin-2-yl)-1H-pyrazol-1-yl)piperidin-1-yl)-6-oxohexyl)amino)-3-methyl-2-oxo-2,3-dihydro-1H-benzo[d]imidazol-1-yl)piperidine-2,6-dione] | > 500 |
| O=C(CN1CCC(n2cc(-c3cnc4cccc(-c5cc(F)c(CN6CCOCC6)c(F)c5)c4n3)cn2)CC1)NCCOCCOCCNc1cccc2c1C(=O)N(C1CCC(=O)NC1=O)C2=O (stereo not shown) [JA-140, 2-[4-[4-[8-[3,5-Difluoro-4-(morpholinomethyl)phenyl]quinoxalin-2-yl]pyrazol-1-yl]-1-piperidyl]-N-[2-[2-[2-[[2-(2,6-dioxo-3-piperidyl)-1,3-dioxo-isoindolin-4-yl]amino]ethoxy]ethoxy]ethyl]acetamide] | > 10000 |
| Cc1cnc(Nc2ccc(N3CCN(CC(=O)NCCOCCOCCOCCOCCOCCNc4ccc5c(c4)C(=O)N(C4CCC(=O)NC4=O)C5=O)CC3)cc2)nc1Nc1cccc(S(=O)(=O)NC(C)(C)C)c1 (stereo not shown) [JA-241, 2-(4-(4-((4-((3-(N-(tert-butyl)sulfamoyl)phenyl)amino)-5-methylpyrimidin-2-yl)amino)phenyl)piperazin-1-yl)-N-(17-((2-(2,6-dioxopiperidin-3-yl)-1,3-dioxoisoindolin-5-yl)amino)-3,6,9,12,15-pentaoxaheptadecyl)acetamide] | 1040 |
| Cc1ncsc1-c1ccc(CNC(=O)[C@@H]2C[C@@H](O)CN2C(=O)[C@@H](NC(=O)CCCCCCC(=O)N2CCC(n3cc(-c4cnc5cccc(-c6cc(F)c(CN7CCOCC7)c(F)c6)c5n4)cn3)CC2)C(C)(C)C)cc1 [JA-052, (2S,4R)-1-[1 (2S)-2-[[8-[4-[4-[8-[3,5-Difluoro-4-(morpholinomethyl)phenyl]quinoxalin-2-yl]pyrazol-1-yl]-1-piperidyl]-8-oxo-octanoyl]amino]-3,3-dimethyl-butanoyl]-4-hydroxy-N-[[14-(4-methylthiazol-5-yl)phenyl]methyl]pyrrolidine-2-carboxamide] | > 10000 |
| CS(=O)(=O)c1ccc(-c2cccc3nc(Nc4ccc(N5CCN(CC(=O)NCCCCCNc6cccc7c6C(=O)N(C6CCC(=O)NC6=O)C7=O)CC5)cc4)nn23)cc1 (stereo not shown) [JA-113, N-(5-((2-(2,6-Dioxopiperidin-3-yl)-1,3-dioxoisoindolin-4-yl)amino)pentyl)-2-(4-(4-((5-(4-(methylsulfonyl)phenyl)-[1,2,4]triazolo[1,5-a]pyridin-2-yl)amino)phenyl)piperazin-1-yl)acetamide] | > 10000 |
| Cc1cnc(Nc2ccc(N3CCN(CC(=O)NCCOCCOCCOCCOCCNc4cccc5c4C(=O)N(C4CCC(=O)NC4=O)C5=O)CC3)cc2)nc1Nc1cccc(S(=O)(=O)NC(C)(C)C)c1 (stereo not shown) [JA-089, 2-(4-(4-((4-((3-(N-(tert-Butyl)sulfamoyl)phenyl)amino)-5-methylpyrimidin-2-yl)amino)phenyl)piperazin-1-yl)-N-(14-((2-(2,6-dioxopiperidin-3-yl)-1,3-dioxoisoindolin-4-yl)amino)-3,6,9,12-tetraoxatetradecyl)acetamide] | 975 |
| Cc1ncsc1-c1ccc(CNC(=O)[C@@H]2C[C@@H](O)CN2C(=O)[C@@H](NC(=O)CCCCNC(=O)CN2CCN(c3ccc(Nc4nc5cccc(-c6ccc(S(C)(=O)=O)cc6)n5n4)cc3)CC2)C(C)(C)C)cc1 [JA-130, (2S,4R)-1-((S)-3,3-Dimethyl-2-(5-(2-(4-(4-((5-(4-(methylsulfonyl)phenyl)-[1,2,4]triazolo[1,5-a]pyridin-2-yl)amino)phenyl)piperazin-1-yl)acetamido)pentanamido)butanoyl)-4-hydroxy-N-(4-(4-methylthiazol-5-yl)benzyl)pyrrolidine-2-carboxamide] | > 10000 |
| O=C1CCC(N2Cc3ccc(CCCCCCC(=O)N4CCC(n5cc(-c6cnc7cccc(-c8cc(F)c(CN9CCOCC9)c(F)c8)c7n6)cn5)CC4)cc3C2=O)C(=O)N1 (stereo not shown) [JA-269, 3-(6-(7-(4-(4-(8-(3,5-difluoro-4-(morpholinomethyl)phenyl)quinoxalin-2-yl)-1H-pyrazol-1-yl)piperidin-1-yl)-7-oxoheptyl)-1-oxoisoindolin-2-yl)piperidine-2,6-dione] | 3.8 |
| Cn1c(=O)n(C2CCC(=O)NC2=O)c2cccc(NCCCCCCC(=O)N3CCN(c4ccc(Nc5nc6cccc(-c7ccc(S(C)(=O)=O)cc7)n6n5)cc4)CC3)c21 (stereo not shown) [JA-285, 3-(3-Methyl-4-((7-(4-(4-((5-(4-(methylsulfonyl)phenyl)-[1,2,4]triazolo[1,5-a]pyridin-2-yl)amino)phenyl)piperazin-1-yl)-7-oxoheptyl)amino)-2-oxo-2,3-dihydro-1H-benzo[d]imidazol-1-yl)piperidine-2,6-dione] | > 500 |
| CS(=O)(=O)c1ccc(-c2cccc3nc(Nc4ccc(N5CCN(CC(=O)NCCCCNc6cccc7c6C(=O)N(C6CCC(=O)NC6=O)C7=O)CC5)cc4)nn23)cc1 (stereo not shown) [JA-109, N-(4-((2-(2,6-Dioxopiperidin-3-yl)-1,3-dioxoisoindolin-4-yl)amino)butyl)-2-(4-(4-((5-(4-(methylsulfonyl)phenyl)-[1,2,4]triazolo[1,5-a]pyridin-2-yl)amino)phenyl)piperazin-1-yl)acetamide] | > 10000 |
| CS(=O)(=O)c1ccc(-c2cccc3nc(Nc4ccc(N5CCN(CC(=O)NCCOCCOCCOCCNc6cccc7c6C(=O)N(C6CCC(=O)NC6=O)C7=O)CC5)cc4)nn23)cc1 (stereo not shown) [JA-127, N-(2-(2-(2-(2-((2-(2,6-Dioxopiperidin-3-yl)-1,3-dioxoisoindolin-4-yl)amino)ethoxy)ethoxy)ethoxy)ethyl)-2-(4-(4-((5-(4-(methylsulfonyl)phenyl)-[1,2,4]triazolo[1,5-a]pyridin-2-yl)amino)phenyl)piperazin-1-yl)acetamide] | > 10000 |
